Assays:
SSTR4 [1] = biological target: T1, SSTR4 (Homo sapiens (Human), UniProt P31391); experiment: Inhibition of forskolin stimulated cAMP in CHO-K1 cells overexpressing SSTR4; assay type: cell-based; conditions: for EC50: read-out: SSTR4 Activity pEC50 (converted)
Procedure, shortened: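 Read-out is a HTRF LANCE Ultra cAMP competition using Eu-labelled streptavidin and biotin-cAMP, incubated 60 min at room temperature. It followed a 30 min room-temperature exposure of Kreb's Ringer-washed cells to compound plus forskolin. Potency is expressed as pEC50.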

SSTR4 [2] = biological target: T1, SSTR4; experiment: SSTR4 I-125 somatostatin competition binding assay (membranes from CHO-K1 cells overexpressing SSTR4); conditions: competition with I-125 labeled somatostatin; for IC50: read-out: SSTR4 Binding pIC50 (converted)
Description: Membranes from CHO-K1 cells overexpressing SSTR4 are purchased from Perkin Elmer (catalog number ES-524-M400UA). Test compounds are suspended in DMSO and then diluted in assay buffer (25 mM HEPES pH 7.4, 10 mM MgCl2, 1 mM CaCl2), 0.5% BSA) plus 0.2 nM I-125 labeled somatostatin (Perkin Elmer catalog number NEX389). […] Then 1 μg of SSTR4 membranes in 50 μL assay buffer are added per well. The Plate is incubated for 60 minutes at room temperature. FilterMat A filters (Perkin Elmer catalog number 1450-421) are pre-soaked in 0.5% PEI (Sigma catalog number P3143). The contents of the assay plate are transferred to filters with a TomTech harvester and washed 5 times with 20 mM HEPES, 100 mM NaCl. The filters are dried in a microwave oven then transferred to sample bag containing a scintillator sheet (Perkin Elmer catalog number 1450-441). The scintillator sheets are melted to filters using a heat block. The filters are then read in a MicroBeta scintillation counter. Binding Ki curves are generated using Activity Base for Screening Data Management and the results are reported as pIC50.

T1 sequence (P31391 whole entry): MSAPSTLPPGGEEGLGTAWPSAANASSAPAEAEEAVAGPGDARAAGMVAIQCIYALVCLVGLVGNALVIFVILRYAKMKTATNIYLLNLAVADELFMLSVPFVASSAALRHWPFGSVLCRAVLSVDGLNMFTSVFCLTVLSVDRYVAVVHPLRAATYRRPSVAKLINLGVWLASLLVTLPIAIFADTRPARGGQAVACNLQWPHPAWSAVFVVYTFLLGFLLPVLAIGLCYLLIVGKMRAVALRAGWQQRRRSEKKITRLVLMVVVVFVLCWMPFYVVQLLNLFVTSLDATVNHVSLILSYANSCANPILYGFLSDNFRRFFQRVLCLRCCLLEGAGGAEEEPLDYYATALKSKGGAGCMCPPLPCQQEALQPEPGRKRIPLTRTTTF

| SMILES | SSTR4 Activity pEC50 (SSTR4 [1]) | other results |
| --- | --- | --- |
| CC[C@@H]1CN(C)CC[C@H]1NC(=O)C(C)(C)COc1ncccc1OC(F)(F)F (racemic) [Example 115, N-(trans-3-ethyl-1-methylpiperidin-4-yl)-2,2-dimethyl-3-((3-(trifluoromethoxy)pyridin-2-yl)oxy)propanamide] | – | EC50 (SSTR4 [1]): 0.631 nM; IC50 (SSTR4 [2]): 5.01 nM |
| Cc1ncccc1[C@@H]1CNCC[C@H]1OC(=O)C(C)(C)COc1ncccc1C(F)(F)F (racemic) [Example 170, trans-3-(2-methylpyridin-3-yl)piperidin-4-yl 2,2-dimethyl-3-((3-(trifluoromethyl)pyridin-2-yl)oxy)propanoate] | – | EC50 (SSTR4 [1]): 39.8 nM; IC50 (SSTR4 [2]): 200 nM |
| C[C@H]1C[C@@H](NC(=O)C(F)(F)COc2ncccc2C(F)(F)F)CCN1C (racemic) [Example 191, cis-N-(1,2-dimethylpiperidin-4-yl)-2,2-difluoro-3-((3-(trifluoromethyl)pyridin-2-yl)oxy)propanamide] | – | EC50 (SSTR4 [1]): 79.4 nM; IC50 (SSTR4 [2]): 200 nM |
| Cc1cccnc1OCC(F)(F)C(=O)N[C@@H]1CCN(C)C[C@H]1C (racemic) [Example 199, N-(trans-1,3-dimethylpiperidin-4-yl)-2,2-difluoro-3-((3-methylpyridin-2-yl)oxy)propanamide] | – | EC50 (SSTR4 [1]): 158 nM; IC50 (SSTR4 [2]): 794 nM |
| C[C@@H]1CN(C)CC[C@H]1NC(=O)C(C)(C)COc1ncccc1C(F)(F)F (relative stereo) [Example 11, trans-N-(1,3-dimethylpiperidin-4-yl)-2,2-dimethyl-3-((3-(trifluoromethyl)pyridin-2-yl)oxy)propanamide] | 8.0 | SSTR4 Binding pIC50 (SSTR4 [2]): 7.0 |
| C[C@@H]1CN(C)CC[C@H]1NC(=O)C(C)(C)COc1ncccc1C1CC1 (relative stereo) [Example 20, trans-3-((3-cyclopropylpyridin-2-yl)oxy)-N-(1,3-dimethylpiperidin-4-yl)-2,2-dimethylpropanamide] | 8.3 | SSTR4 Binding pIC50 (SSTR4 [2]): 7.2 |
| C[C@@H]1CN(C)CC[C@H]1NC(=O)C(C)(C)COc1ncccc1C(F)(F)F (relative stereo) [Example 109, trans-N-(1,3-dimethylpiperidin-4-yl)-2,2-dimethyl-3-((3-(trifluoromethyl)pyridin-2-yl)oxy)propanamide] | 8.0 | SSTR4 Binding pIC50 (SSTR4 [2]): 7.0 |
| CC[C@@H]1CN(C)CC[C@@H]1NC(=O)C(C)(C)COc1ncccc1C(F)(F)F (relative stereo) [Example 111, cis-N-(3-ethyl-1-methylpiperidin-4-yl)-2,2-dimethyl-3-((3-(trifluoromethyl)pyridin-2-yl)oxy)propanamide] | 7.7 | SSTR4 Binding pIC50 (SSTR4 [2]): 6.7 |
| CC[C@@H]1CN(C)CC[C@@H]1NC(=O)C(C)(C)COc1ncccc1OC(F)(F)F (relative stereo) [Example 116, N-(cis-3-ethyl-1-methylpiperidin-4-yl)-2,2-dimethyl-3-((3-(trifluoromethoxy)pyridin-2-yl)oxy)propanamide] | 7.5 | SSTR4 Binding pIC50 (SSTR4 [2]): 6.2 |
| C[C@H]1C[C@@H](NC(=O)C(C)(C)COc2ncccc2C(F)(F)F)CCN1C (relative stereo) [Example 129, cis-N-(1,2-dimethylpiperidin-4-yl)-2,2-dimethyl-3-((3-(trifluoromethyl)pyridin-2-yl)oxy)propanamide] | 7.7 | SSTR4 Binding pIC50 (SSTR4 [2]): 6.8 |
| C[C@@H]1CN(CC#N)CC[C@H]1NC(=O)C(C)(C)COc1ncccc1OC(F)(F)F (relative stereo) [Example 184, trans-N-(1-(cyanomethyl)-3-methylpiperidin-4-yl)-2,2-dimethyl-3-((3-(trifluoromethoxy)pyridin-2-yl)oxy)propanamide] | 7.6 | SSTR4 Binding pIC50 (SSTR4 [2]): 6.0 |
| C[C@@H]1CN(C)CC[C@H]1NC(=O)C(C)(C)COc1ncccc1OC(F)(F)F (single isomer, unassigned) [Example 13, trans-N-(1,3-dimethylpiperidin-4-yl)-2,2-dimethyl-3-((3-(trifluoromethoxy)pyridin-2-yl)oxy)propanamide] | 8.4 | SSTR4 Binding pIC50 (SSTR4 [2]): 7.5 |
| CCC1CC(NC(=O)C(C)(C)COc2ncccc2C(F)(F)F)CCN1C (stereo not drawn) [Example 137, N-(2-ethyl-1-methylpiperidin-4-yl)-2,2-dimethyl-3-((3-(trifluoromethyl)pyridin-2-yl)oxy)propanamide] | 6.7 | – |
| Cc1cccnc1OCC(C)(C)C(=O)N[C@@H]1CCN(C)C[C@H]1C [Example 142, N-((3R,4R)-1,3-dimethylpiperidin-4-yl)-2,2-dimethyl-3-((3-methylpyridin-2-yl)oxy)propanamide] | 6.1 | – |
| CC[C@H]1CN(C)CC[C@@H]1NC(=O)C(C)(C)COc1ncccc1C(F)(F)F [Example 145, N-((3S,4S)-3-ethyl-1-methylpiperidin-4-yl)-2,2-dimethyl-3-((3-(trifluoromethyl)pyridin-2-yl)oxy)propanamide] | 6.2 | – |
| CCC1CC(NC(=O)C(C)(C)COc2ncccc2OC(F)(F)F)CCN1C (stereo not drawn) [Example 146, N-(2-ethyl-1-methylpiperidin-4-yl)-2,2-dimethyl-3-((3-(trifluoromethoxy)pyridin-2-yl)oxy)propanamide] | 6.7 | – |
| CN1CCC(NC(=O)C(C)(C)COc2ncccc2C(F)(F)F)C12CCC2 (stereo not drawn) [Example 151, 2,2-dimethyl-N-(5-methyl-5-azaspiro[3.4]octan-8-yl)-3-((3-(trifluoromethyl)pyridin-2-yl)oxy)propanamide] | – | EC50 (SSTR4 [1]): 158 nM |

| SMILES | SSTR4 Activity pEC50 (SSTR4 [1]) | other results |
| --- | --- | --- |
| Cc1cccnc1OCC(C)(C)C(=O)N[C@H]1CN(C)CC12CC2 [Example 153, (R)-2,2-dimethyl-N-(5-methyl-5-azaspiro[2.4]heptan-7-yl)-3-((3-methylpyridin-2-yl)oxy)propanamide] | 8.1 | – |
| Cc1cnc(OCC(C)(C)C(=O)N[C@H]2CN(C)CC23CC3)c(C)c1 [Example 154, (R)-3-((3,5-dimethylpyridin-2-yl)oxy)-2,2-dimethyl-N-(5-methyl-5-azaspiro[2.4]heptan-7-yl)propanamide] | 7.4 | – |
| CC(C)(COc1ncccc1C(F)(F)F)C(=O)NC1CCNCC1(F)F (stereo not drawn) [Example 159, N-(3,3-difluoropiperidin-4-yl)-2,2-dimethyl-3-((3-(trifluoromethyl)pyridin-2-yl)oxy)propanamide] | 6.7 | – |
| CN(C(=O)C(C)(C)COc1ncccc1C(F)(F)F)[C@H]1CCNC[C@@H]1F [Example 160, N-((3S,4S)-3-fluoropiperidin-4-yl)-N,2,2-trimethyl-3-((3-(trifluoromethyl)pyridin-2-yl)oxy)propanamide] | 6.4 | – |
| CN1C[C@@H](NC(=O)C(C)(C)COc2ncccc2C(F)(F)F)C2(CC2)C1 [Example 173, (S)-2,2-dimethyl-N-(5-methyl-5-azaspiro[2.4]heptan-7-yl)-3-((3-(trifluoromethyl)pyridin-2-yl)oxy)propanamide] | 6.3 | – |
| CN1CCC(NC(=O)C(C)(C)COc2ncccc2OC(F)(F)F)CC12CC2 (stereo not drawn) [Example 174, 2,2-dimethyl-N-(4-methyl-4-azaspiro[2.5]octan-7-yl)-3-((3-(trifluoromethoxy)pyridin-2-yl)oxy)propanamide] | 7.0 | – |
| CN1CCC(NC(=O)C(C)(C)COc2ncccc2C(F)(F)F)CC12CC2 (stereo not drawn) [Example 175, 2,2-dimethyl-N-(4-methyl-4-azaspiro[2.5]octan-7-yl)-3-((3-(trifluoromethyl)pyridin-2-yl)oxy)propanamide] | 6.2 | – |
| C[C@@H]1C[C@@H](NC(=O)C(C)(C)COc2ncccc2C(F)(F)F)CCN1C [Example 177, N-((2R,4S)-1,2-dimethylpiperidin-4-yl)-2,2-dimethyl-3-((3-(trifluoromethyl)pyridin-2-yl)oxy)propanamide] | 6.9 | – |
| C[C@H]1C[C@@H](NC(=O)C(C)(C)COc2ncccc2C(F)(F)F)CCN1C [Example 178, N-((2S,4S)-1,2-dimethylpiperidin-4-yl)-2,2-dimethyl-3-((3-(trifluoromethyl)pyridin-2-yl)oxy)propanamide] | – | SSTR4 Binding pIC50 (SSTR4 [2]): 6.5 |
| C[C@H]1CN(C)CC[C@@H]1NC(=O)C(C)(C)COc1ccccc1Cl [Example 193, 3-(2-chlorophenoxy)-N-((3S,4S)-1,3-dimethylpiperidin-4-yl)-2,2-dimethylpropanamide] | 8.9 | – |
| CN1CCC(NC(=O)C(C)(C)COc2ccccc2F)CC1 [Example 195, 3-(2-fluorophenoxy)-2,2-dimethyl-N-(1-methylpiperidin-4-yl)propanamide] | 6.5 | – |
| O=C(N[C@H]1CCNC[C@@H]1F)C(F)(F)COc1ncccc1C1CC1 [Example 198, 3-((3-cyclopropylpyridin-2-yl)oxy)-2,2-difluoro-N-((3S,4S)-3-fluoropiperidin-4-yl)propanamide] | 8.2 | – |
| CN1CCC(NC(=O)C(C)(C)COc2cccc(F)c2)CC1 [Example 203, 3-(3-fluorophenoxy)-2,2-dimethyl-N-(1-methylpiperidin-4-yl)propanamide] | 7.1 | – |
| CN1CCC(NC(=O)C(C)(C)COc2ccc(F)cc2)CC1 [Example 204, 3-(4-fluorophenoxy)-2,2-dimethyl-N-(1-methylpiperidin-4-yl)propanamide] | 6.4 | – |
| Cc1cccnc1OCC(F)(F)C(=O)N[C@@H]1CCN(C)[C@H](C)C1 [Example 205, N-((2R,4R)-1,2-dimethylpiperidin-4-yl)-2,2-difluoro-3-((3-methylpyridin-2-yl)oxy)propanamide] | 6.9 | – |
| CN1CCC(NC(=O)C(C)(C)COc2ccc(Cl)cc2)CC1 [Example 217, 3-(4-chlorophenoxy)-2,2-dimethyl-N-(1-methylpiperidin-4-yl)propanamide] | 5.8 | – |
